Tests used:
[1] = cited from earlier work
norepinephrine uptake = conditions: in vitro studies; cited from earlier work
dopamine uptake = conditions: in vitro studies; cited from earlier work
[2] = Desvenlafaxine particle size (MMD); format: physicochemical; conditions: particle size of desvenlafaxine salt grade
Source text: The “mass mean diameter” or “MMD” refers to the median particle diameter based on mass (i.e. the particle diameter where one half of the mass of particles is contributed by particles with a lesser diameter and one half of the mass of particles is contributed by particles with a greater diameter) and can be measured using various commonly available methods such as measurement using light (eg. light-scattering methods or turbidimetric methods), sedimentation methods (eg. pipette analysis using an Andreassen pipette, sedimentation scales, photo-sedimentometers or sedimentation in a centrifugal force), pulse methods (eg. Coulter counter), or sorting by means of gravitational or centrifugal force.
The particle size of desvenlafaxine utilised in the following formulations are set out in Table 1.

[3] = in vitro dissolution, USP II apparatus (paddles), 50 rpm, pH 6.8 phosphate buffer; format: physicochemical; conditions: FIG. 1; similar time points; matrix tablets with Eudragit NE40D
Protocol: FIG. 1 is the in vitro dissolution profiles of embodied formulations of the present invention when measured using a USP II apparatus at 50 rpm in pH 6.8 phosphate buffer.
The resulting in vitro dissolution profiles of these batches as tested using a USP II apparatus (paddles) at 50 rpm in pH 6.8 phosphate buffer are set out in Table 3.

| SMILES | MMD (mass mean diameter) [2] [μm] | change in amount of desvenlafaxine dissolved, coarse to fine [3] | other results |
| --- | --- | --- | --- |
| CN(C)CC(c1ccc(O)cc1)C1(O)CCCCC1 (racemic) [desvenlafaxine, (+/−)-4-[2-(dimethylamino)-1-(1-hydroxycyclohexyl)ethyl]phenol] |  |  | half-life ([1]; in vivo): about 10 hours; half-life relative to venlafaxine ([1]; times longer than the half-life of venlafaxine): approximately 2.5 times; inhibition of norepinephrine uptake compared with racemic venlafaxine (norepinephrine uptake): more potent inhibitor; inhibition of dopamine uptake compared with racemic venlafaxine (dopamine uptake): more potent inhibitor |
| CN(C)CC(c1ccc(O)cc1)C1(O)CCCCC1.O=C(O)/C=C/C(=O)O (stereo not shown) [Coarse fumarate] | 184 |  |  |
| CN(C)CC(c1ccc(O)cc1)C1(O)CCCCC1.O=C(O)CCC(=O)O (stereo not shown) [Coarse succinate] | 186 |  |  |

Second part, led by results:

| MMD (mass mean diameter) [2] [μm] | SMILES | change in amount of desvenlafaxine dissolved, coarse to fine [3] | other results |
| --- | --- | --- | --- |
| 21 | CN(C)CC(c1ccc(O)cc1)C1(O)CCCCC1.O=C(O)/C=C/C(=O)O (stereo not shown) [Fine fumarate] | approximately similar increase in the amount of desvenlafaxine dissolved |  |
| 37 | CN(C)CC(c1ccc(O)cc1)C1(O)CCCCC1.O=C(O)CCC(=O)O (stereo not shown) [Fine succinate] | marked increase in the amount of desvenlafaxine dissolved |  |
